The record followed here is patent US10493077B2, “Fused imidazo-piperidine JAK inhibitor compound” (THERAVANCE BIOPHARMA R&D IP, LLC, priority 2017, dated 2019).

For test [1], the system named is IL-2/anti-CD3 stimulated IFNγ in human PBMCs. Put plainly: Cellular JAK potency assay: inhibition of IL-2/anti-CD3 stimulated IFNγ in human PBMCs. Type of test: cell-based. Conditions: PBMC, 24 h stimulation, read-out: pIC50, inhibition of IL-2/anti-CD3 stimulated IFNγ (converted). The method, then: The potency of the test compound for inhibition of interleukin-2 (IL-2)/anti-CD3 stimulated interferon gamma (IFNγ) was measured in human peripheral blood mononuclear cells (PBMCs) isolated from human whole blood (Stanford Blood Center). Because IL-2 signals through JAK, this assay provides a measure of JAK cellular potency.
(1) Human peripheral blood mononuclear cells (PBMC) were isolated from human whole blood of healthy donors using a ficoll gradient. Cells were cultured in a 37° C., 5% CO2 humidified incubator in RPMI (Life Technologies) supplemented with 10% Heat Inactivated Fetal Bovine Serum (FBS, Life Technologies), 2 mM Glutamax (Life Technologies), 25 mM HEPES (Life Technologies) and 1× Pen/Strep (Life Technologies). Cells were seeded at 200,000 cells/well in media (50 μL) and cultured for 1 h. The compound was serially diluted in DMSO and then diluted another 500-fold (to a 2× final assay concentration) in media. […]
(2) After cytokine stimulation, cells were centrifuged at 500 g for 5 min and supernatants removed and frozen at −80° C. To determine the inhibitory potency of test compounds in response to IL-2/anti-CD3, supernatant IFNγ concentrations were measured via ELISA (R&D Systems). IC50 values were determined from analysis of the inhibition curves of concentration of IFNγ vs compound concentration. Data are expressed as pIC50 (negative decadic logarithm IC50) values.

A further test deals with T1, PLK4 (Homo sapiens, UniProt O00444).
T1 construct: made in house; host or cells: T7 phage in E. coli (BL21-derived) or HEK-293
The test is described as follows: Kinome screen, PLK4. Type of test: binding. The following applies: screened at 1 μM. The method, then:
(§1) Kinase-tagged T7 phage strains were grown in parallel in 24-well blocks in an E. coli host derived from the BL21 strain. E. coli were grown to log-phase and infected with T7 phage from a frozen stock (multiplicity of infection=0.4) and incubated with shaking at 32° C. until lysis (90-150 minutes). The lysates were centrifuged (6,000×g) and filtered (0.2 μm) to remove cell debris. The remaining kinases were produced in HEK-293 cells and subsequently tagged with DNA for qPCR detection.
(§2) Streptavidin-coated magnetic beads were treated with biotinylated small molecule ligands for 30 minutes at room temperature to generate affinity resins for kinase assays. The liganded beads were blocked with excess biotin and washed with blocking buffer (SeaBlock (Pierce), 1% BSA, 0.05% Tween 20, 1 mM DTT) to remove unbound ligand and to reduce non-specific phage binding. […] Test compounds were prepared as 40× stocks in 100% DMSO and directly diluted into the assay. All reactions were performed in polypropylene 384-well plates in a final volume of 0.04 ml. […] The beads were then re-suspended in elution buffer (1×PBS, 0.05% Tween 20, 0.5 μM non-biotinylated affinity ligand) and incubated at room temperature with shaking for 30 minutes. The kinase concentration in the eluates was measured by qPCR.

The next test addresses T2, JAK1 (Homo sapiens, UniProt P23458).
T2 construct: GST; purchased Life Technologies
The test is described as follows: LanthaScreen JAK biochemical assay, JAK1. Conditions: read-out: JAK 1 pKi (converted). The method, then:
A panel of four LanthaScreen JAK biochemical assays (JAK1, 2, 3 and Tyk2) were carried in a common kinase reaction buffer (50 mM HEPES, pH 7.5, 0.01% Brij-35, 10 mM MgCl2, and 1 mM EGTA). Recombinant GST-tagged JAK enzymes and a GFP-tagged STAT1 peptide substrate were obtained from Life Technologies.
Serially diluted compound was pre-incubated with each of the four JAK enzymes and the substrate in white 384-well microplates (Corning) at ambient temperature for 1 h. ATP was subsequently added to initiate the kinase reactions in 10 μL total volume, with 1% DMSO. […] The plates were allowed to incubate at ambient temperature for 1 h before being read on the EnVision reader (Perkin Elmer). Emission ratio signals (520 nm/495 nm) were recorded and utilized to calculate the percent inhibition values based on DMSO and background controls.
For dose-response analysis, percent inhibition data were plotted vs. compound concentrations, and IC50 values were determined from a 4-parameter robust fit model with the Prism software (GraphPad Software). Results were expressed as pIC50 (negative logarithm of IC50) and subsequently converted to pKi (negative logarithm of dissociation constant, Ki) using the Cheng-Prusoff equation.

The target in another test is T3, KIT (Homo sapiens, UniProt P10721).
T3 construct: made in house; host or cells: T7 phage in E. coli (BL21-derived) or HEK-293
The test is described as follows: Kinome screen, KIT. Conditions: screened at 1 μM. Type of test: binding. The method, then:
as §1, §2

Test [2] has as its system IL-6 stimulated CCL2 (MCP-1) in human PBMCs. Put plainly: Cellular JAK potency assay: inhibition of IL-6 stimulated CCL2 (MCP-1) in human PBMCs. Conditions: PBMC, 48 h stimulation, read-out: pIC50, inhibition of IL-6 stimulated CCL2 (MCP-1) (converted). It counts as cell-based. The method, then:
The potency of the test compound for inhibition of interleukin-6 (IL-6) stimulated CCL2 (MCP-1) production was measured in human peripheral blood mononuclear cells (PBMCs) isolated from human whole blood (Stanford Blood Center). Because IL-6 signals through JAK, this assay provides a distal measure of JAK cellular potency.
(1) The protocol of Assay 3 paragraph (1) was followed up to the incubation with test compounds. In the present assay, after test compounds were added to wells and incubated, IL-6 (R&D Systems; final concentration 10 ng/ml) in pre-warmed assay media (50 μL) was added.
(2) After cytokine stimulation for 48 h, cells were centrifuged at 500 g for 5 min and supernatants were removed and frozen at −80° C. To determine the inhibitory potency of the test compound in response to IL-6, supernatant CCL2 (MCP-1) concentrations were measured via ELISA (R&D Systems). IC50 values were determined from analysis of the inhibition curves of concentration of CCL2/MCP-1 vs compound concentration. Data are expressed as pIC50 (negative decadic logarithm IC50) values.

The target of another test is T4, SRC (Homo sapiens, UniProt P12931).
T4 construct: made in house; host or cells: T7 phage in E. coli (BL21-derived) or HEK-293
The test is described as follows: Kinome screen, SRC. It counts as binding. The following applies: screened at 1 μM. The method, then: as §1, §2

The next test deals with T5, CDK2 (Homo sapiens, UniProt P24941).
T5 construct: made in house; host or cells: T7 phage in E. coli (BL21-derived) or HEK-293
The test is described as follows: Kinome screen, CDK2. It counts as binding. Conditions: screened at 1 μM. The method, then:
as §1, §2

The target of another test is T6, CDK9 (Homo sapiens, UniProt P50750).
T6 construct: made in house; host or cells: T7 phage in E. coli (BL21-derived) or HEK-293
Put plainly: Kinome screen, CDK9. Type of test: binding. Conditions: screened at 1 μM. The method, then: as §1, §2

Usually inhibition stands for the percentage by which the read-out fell short of the control.

T4 sequence (P12931 whole entry): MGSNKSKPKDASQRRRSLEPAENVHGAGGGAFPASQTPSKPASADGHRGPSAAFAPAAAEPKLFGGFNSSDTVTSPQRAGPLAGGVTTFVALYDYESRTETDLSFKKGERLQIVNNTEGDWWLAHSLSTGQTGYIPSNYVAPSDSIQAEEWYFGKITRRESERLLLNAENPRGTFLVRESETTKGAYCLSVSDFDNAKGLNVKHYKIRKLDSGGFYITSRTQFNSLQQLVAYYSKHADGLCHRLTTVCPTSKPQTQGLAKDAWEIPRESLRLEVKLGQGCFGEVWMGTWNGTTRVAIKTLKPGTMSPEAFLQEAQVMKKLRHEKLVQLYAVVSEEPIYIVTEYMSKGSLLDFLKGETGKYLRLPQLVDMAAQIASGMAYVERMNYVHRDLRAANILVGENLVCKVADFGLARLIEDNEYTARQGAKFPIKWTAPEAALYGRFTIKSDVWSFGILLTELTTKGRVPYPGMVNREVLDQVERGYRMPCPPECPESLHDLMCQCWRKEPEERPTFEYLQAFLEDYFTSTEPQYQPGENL
T3 sequence (P10721 26-976): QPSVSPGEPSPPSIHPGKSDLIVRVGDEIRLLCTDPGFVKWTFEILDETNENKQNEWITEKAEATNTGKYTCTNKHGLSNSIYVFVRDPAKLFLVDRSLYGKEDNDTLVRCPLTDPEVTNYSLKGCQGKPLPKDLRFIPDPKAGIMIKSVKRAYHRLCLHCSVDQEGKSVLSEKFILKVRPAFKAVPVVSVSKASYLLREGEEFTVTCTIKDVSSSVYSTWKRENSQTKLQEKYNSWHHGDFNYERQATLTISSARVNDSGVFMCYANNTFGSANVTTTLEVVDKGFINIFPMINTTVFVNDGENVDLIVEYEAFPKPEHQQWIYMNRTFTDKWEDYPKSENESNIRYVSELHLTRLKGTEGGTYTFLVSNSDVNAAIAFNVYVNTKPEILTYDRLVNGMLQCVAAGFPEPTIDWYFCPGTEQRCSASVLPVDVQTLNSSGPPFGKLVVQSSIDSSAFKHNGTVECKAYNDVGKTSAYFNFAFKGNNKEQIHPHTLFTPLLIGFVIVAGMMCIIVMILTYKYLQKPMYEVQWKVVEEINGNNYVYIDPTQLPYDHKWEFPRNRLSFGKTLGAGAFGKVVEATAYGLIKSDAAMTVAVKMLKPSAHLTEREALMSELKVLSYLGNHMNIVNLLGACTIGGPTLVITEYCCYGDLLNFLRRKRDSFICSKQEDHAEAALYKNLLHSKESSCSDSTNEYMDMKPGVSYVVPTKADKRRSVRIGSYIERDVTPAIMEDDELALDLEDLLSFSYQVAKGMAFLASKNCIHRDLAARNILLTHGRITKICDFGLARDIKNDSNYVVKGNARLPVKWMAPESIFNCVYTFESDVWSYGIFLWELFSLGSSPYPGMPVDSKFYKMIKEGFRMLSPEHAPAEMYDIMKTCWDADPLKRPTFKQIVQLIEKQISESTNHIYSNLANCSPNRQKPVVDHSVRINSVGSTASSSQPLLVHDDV
T6 sequence (P50750 whole entry): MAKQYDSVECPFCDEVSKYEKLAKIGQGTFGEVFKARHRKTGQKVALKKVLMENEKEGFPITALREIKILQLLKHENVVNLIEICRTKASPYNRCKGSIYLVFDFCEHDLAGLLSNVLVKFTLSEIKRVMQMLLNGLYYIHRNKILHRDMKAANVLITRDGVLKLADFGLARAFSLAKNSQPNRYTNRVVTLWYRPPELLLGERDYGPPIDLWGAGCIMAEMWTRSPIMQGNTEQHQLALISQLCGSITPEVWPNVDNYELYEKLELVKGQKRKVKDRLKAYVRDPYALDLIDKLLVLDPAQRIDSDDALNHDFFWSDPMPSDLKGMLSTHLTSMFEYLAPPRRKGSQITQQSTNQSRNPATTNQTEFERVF
T2 sequence (P23458 whole entry): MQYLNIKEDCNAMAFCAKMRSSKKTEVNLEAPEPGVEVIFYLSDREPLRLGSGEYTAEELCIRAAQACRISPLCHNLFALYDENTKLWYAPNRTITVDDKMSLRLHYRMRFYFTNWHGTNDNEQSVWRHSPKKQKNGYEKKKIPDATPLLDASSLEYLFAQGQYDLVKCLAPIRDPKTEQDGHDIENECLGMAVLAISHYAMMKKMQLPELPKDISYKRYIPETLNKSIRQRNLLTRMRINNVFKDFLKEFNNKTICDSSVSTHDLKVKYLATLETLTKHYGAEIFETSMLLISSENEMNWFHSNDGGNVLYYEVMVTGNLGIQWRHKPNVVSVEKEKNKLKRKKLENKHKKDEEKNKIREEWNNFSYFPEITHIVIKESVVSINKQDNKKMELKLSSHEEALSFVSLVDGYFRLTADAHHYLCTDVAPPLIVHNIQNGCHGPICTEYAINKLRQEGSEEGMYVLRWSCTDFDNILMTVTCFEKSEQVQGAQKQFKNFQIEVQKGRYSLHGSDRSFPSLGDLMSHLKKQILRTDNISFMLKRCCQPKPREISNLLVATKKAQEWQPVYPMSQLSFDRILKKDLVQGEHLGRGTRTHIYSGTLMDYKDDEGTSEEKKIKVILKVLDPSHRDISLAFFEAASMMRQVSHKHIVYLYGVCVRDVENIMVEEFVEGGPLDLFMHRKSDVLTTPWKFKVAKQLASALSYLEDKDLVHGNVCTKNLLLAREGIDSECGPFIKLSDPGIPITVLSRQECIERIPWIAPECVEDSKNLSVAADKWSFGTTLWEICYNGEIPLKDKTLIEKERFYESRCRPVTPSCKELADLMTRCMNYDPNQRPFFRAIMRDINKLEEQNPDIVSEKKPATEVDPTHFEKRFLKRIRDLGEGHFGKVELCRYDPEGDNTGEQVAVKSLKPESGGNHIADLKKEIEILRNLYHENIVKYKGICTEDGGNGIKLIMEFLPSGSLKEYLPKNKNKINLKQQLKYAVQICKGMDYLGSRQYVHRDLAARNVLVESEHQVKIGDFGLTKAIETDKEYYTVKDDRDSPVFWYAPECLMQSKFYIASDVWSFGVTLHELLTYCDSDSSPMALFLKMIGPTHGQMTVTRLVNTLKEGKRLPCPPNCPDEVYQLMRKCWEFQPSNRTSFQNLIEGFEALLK
T1 sequence (O00444 whole entry): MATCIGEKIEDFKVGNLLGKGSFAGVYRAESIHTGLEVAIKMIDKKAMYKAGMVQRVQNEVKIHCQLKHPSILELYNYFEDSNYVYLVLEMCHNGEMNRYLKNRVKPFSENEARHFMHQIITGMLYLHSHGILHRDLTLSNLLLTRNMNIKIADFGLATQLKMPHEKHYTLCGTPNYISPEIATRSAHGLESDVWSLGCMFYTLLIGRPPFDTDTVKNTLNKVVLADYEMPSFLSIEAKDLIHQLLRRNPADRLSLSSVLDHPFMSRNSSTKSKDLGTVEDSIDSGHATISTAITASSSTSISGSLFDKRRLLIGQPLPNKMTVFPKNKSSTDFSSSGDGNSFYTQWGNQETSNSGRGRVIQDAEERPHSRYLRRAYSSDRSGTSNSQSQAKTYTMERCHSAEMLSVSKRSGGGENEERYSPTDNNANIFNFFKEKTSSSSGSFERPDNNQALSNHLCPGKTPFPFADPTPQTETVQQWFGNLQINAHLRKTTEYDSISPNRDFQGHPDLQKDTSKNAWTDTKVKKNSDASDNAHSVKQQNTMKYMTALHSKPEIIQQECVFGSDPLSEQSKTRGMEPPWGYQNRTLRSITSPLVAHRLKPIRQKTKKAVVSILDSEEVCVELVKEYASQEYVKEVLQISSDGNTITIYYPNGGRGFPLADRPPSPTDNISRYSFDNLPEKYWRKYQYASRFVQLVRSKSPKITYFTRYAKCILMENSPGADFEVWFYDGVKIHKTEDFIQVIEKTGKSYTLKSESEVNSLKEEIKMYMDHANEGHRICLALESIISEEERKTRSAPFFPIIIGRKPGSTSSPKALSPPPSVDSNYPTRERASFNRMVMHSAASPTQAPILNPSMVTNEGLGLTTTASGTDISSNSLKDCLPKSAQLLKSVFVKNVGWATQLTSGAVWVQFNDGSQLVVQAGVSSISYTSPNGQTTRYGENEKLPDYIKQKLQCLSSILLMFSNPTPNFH

In the case of `CCc1cc(O)c(F)cc1-c1cc(F)c2c(-c3nc4c([nH]3)CCN(C(=O)CN3CCOCC3)C4)n[nH]c2c1` [Compound 1, 1-(2-(6-(2-ethyl-5-fluoro-4-hydroxyphenyl)-4-fluoro-1H-indazol-3-yl)-1,4,6,7-tetrahydro-5H-imidazo[4,5-c]pyridin-5-yl)-2-morpholinoethan-1-one], the IC50 in test [1] was around 200 nM; in test [2], around 398 nM. Also, the inhibition at 1 µM at PLK4 worked out at 58%; at KIT it was 87%; against SRC, 93%; on CDK2 it was 6%; against CDK9 it was 9%. Further, at JAK1, the Ki is 0.1 nM.
